Results on 30 compounds are retold here after patent publication US20050054696A1, “Indole compounds and medicinal use thereof” (priority 2001, published 2005).

Where only a bound is given, the exact number is not on record here.

The term IC50 denotes the midpoint of a concentration-inhibition curve.

The target of this test is T1, recombinant human liver glycogen phosphorylase (HLGPa) (Homo sapiens, UniProt P06737).
T1 construct: made in house; host or cells: Sf9 insect cells (unpurified cell lysate used as enzyme solution)
T1 sequence (P06737 1-847): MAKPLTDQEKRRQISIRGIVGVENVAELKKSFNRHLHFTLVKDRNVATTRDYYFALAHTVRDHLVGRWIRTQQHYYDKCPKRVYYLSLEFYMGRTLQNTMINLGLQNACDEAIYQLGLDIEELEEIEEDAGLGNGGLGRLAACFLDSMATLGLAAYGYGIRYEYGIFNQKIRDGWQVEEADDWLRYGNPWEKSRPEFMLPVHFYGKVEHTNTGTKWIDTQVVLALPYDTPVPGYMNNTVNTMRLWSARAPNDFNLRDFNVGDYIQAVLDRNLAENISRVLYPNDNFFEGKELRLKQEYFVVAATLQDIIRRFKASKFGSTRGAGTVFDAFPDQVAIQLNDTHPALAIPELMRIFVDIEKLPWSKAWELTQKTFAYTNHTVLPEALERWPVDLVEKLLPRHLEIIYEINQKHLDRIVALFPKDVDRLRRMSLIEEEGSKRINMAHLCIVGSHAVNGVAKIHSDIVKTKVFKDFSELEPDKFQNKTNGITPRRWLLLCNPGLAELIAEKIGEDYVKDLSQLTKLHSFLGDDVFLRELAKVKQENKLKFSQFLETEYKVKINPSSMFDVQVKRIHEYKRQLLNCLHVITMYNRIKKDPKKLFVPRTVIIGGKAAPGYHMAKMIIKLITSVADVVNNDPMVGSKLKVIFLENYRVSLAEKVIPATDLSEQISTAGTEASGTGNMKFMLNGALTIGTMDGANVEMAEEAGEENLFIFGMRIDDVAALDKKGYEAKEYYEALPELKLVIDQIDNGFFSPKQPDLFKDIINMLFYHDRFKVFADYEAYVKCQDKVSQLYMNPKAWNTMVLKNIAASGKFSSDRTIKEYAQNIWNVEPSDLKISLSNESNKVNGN
Nature of the test: Measurement of liver glycogen phosphorylase activity (enzyme inhibitory activity against HLGPa). The format is biochemical. The following applies: Sf9 cell lysate expressing recombinant enzyme; reverse reaction (glycogen synthesis from G1-P), phosphate by malachite green, 60 min room temperature. As to the method: Measurement Method of Liver Glycogen Phosphorylase Activity
The measurement of the glycogen phosphorylase activity was performed by measuring the concentration of phosphoric acic produced by a reverse reaction, that is, a reaction wherein the glycogen phosphorylase synthesizes glycogen from G1-P. A cell lysate of Sf9 cells that forcibly expressed recombinant human liver glycogen phosphorylase was diluted to a protein amount of 80 μg/mL with 1 mM imidazole-hydrochloric acid buffer (pH 7.0, containing 0.2 mM PMSF, 250 mM NaCl, 0.025% BSA) and the dilute cell lysate was used as an enzyme solution of human liver glycogen phosphorylase. As a substrate solution, 25 mM Tris-HCl buffer (pH 7.2, containing 250 mM KCl, 6.25 mM MgCl2, 6.25 mM EGTA, 1.25 mM glucose-1-phosphate, 2.5 mg/ml glycogen, 7.5 mM glucose) was used. The test drug was dissolved in 0.5% dimethyl sulfoxide (DMSO). To a mixture of the test drug (10 μl) and the substrate solution (20 μl) was added an enzyme solution (20 μl) to start the enzyme reaction. As a control, 0.5% DMSO was added instead of the test drug. One free of addition of enzyme was used as a blank. The mixture was reacted at room temperature for 60 min, and a malachite green solution (50 μl) was added. The mixture was further reacted at room temperature for 20 min and absorbance at 650 nm was measured. An enzyme solution was added to the blank simultaneously with the malachite green solution and the measurement was done in the same manner. The percent inhibition (%) of the test drug was calculated from ((value of control−value of the test drug)/(value of control−value of blank))×100 (%).
Turning to `CC(C)(COC(=O)Nc1ccccc1C(=O)NNC(=O)c1cc2cc(Cl)ccc2[nH]1)C(=O)O` [Example 1-76, 3-((2-(2-(5-chloro-1H-indole-2-carbonyl)hydrazinocarbonyl)phenyl)carbamoyloxy)-2,2-dimethylpropionic acid], the IC50 worked out at 37 nM. Then `Nc1ccc2[nH]c(=O)n(NC(=O)c3cc4cc(Cl)ccc4[nH]3)c(=O)c2c1` [Example 2-16, 5-chloro-1H-indole-2-carboxylic acid (6-amino-1,2,3,4-tetrahydro-2,4-dioxoquinazolin-3-yl)amide], with 110 nM; and `COC(=O)Nc1ccccc1C(=O)NNC(=O)c1cc2cc(C)ccc2[nH]1` [Example 1-64, methyl (2-(2-(5-methyl-1H-indole-2-carbonyl)hydrazinocarbonyl)phenyl)carbamate], with over 100 nM; and `COC(=O)COc1cccc(C(=O)NNC(=O)c2cc3cc(Cl)ccc3[nH]2)c1` [Example 1-69, 2-(3-(2-(5-chloro-1H-indole-2-carbonyl)hydrazinocarbonyl)phenoxy)acetic acid methyl ester], with 150 nM. Then `COc1ccc([C@H]2NC(=O)N(NC(=O)c3cc4cc(Cl)ccc4[nH]3)C2=O)cc1` [Example 4-20, 5-chloro-1H-indole-2-carboxylic acid ((4R)-2,5-dioxo-4-(4-methoxyphenyl)imidazolidin-1-yl)amide], with 170 nM. With `O=C(NNC(=O)c1cc2cc(Cl)ccc2[nH]1)Nc1cccc(Cl)c1` [Example 5-10, 5-chloro-1H-indole-2-carboxylic acid 2-((3-chloroanilino)carbonyl)hydrazide] the figure was over 100 nM; with `CNc1ccccc1C(=O)NNC(=O)c1cc2cc(Cl)ccc2[nH]1` [Example 1-53, 2-methylaminobenzoic acid 2-(5-chloro-1H-indole-2-carbonyl)hydrazide], 230 nM; with `CN(C)C(=O)COc1ccccc1C(=O)NNC(=O)c1cc2cc(Cl)ccc2[nH]1` [Example 1-52, 2-(2-(5-chloro-1H-indole-2-carbonyl)hydrazinocarbonyl)phenoxy-N,N-dimethylacetamide], 91 nM. Take `Nc1cc(F)ccc1C(=O)NNC(=O)c1cc2cc(Br)ccc2[nH]1` [Example 1-103, 2-amino-4-fluorobenzoic acid 2-(5-bromo-1H-indole-2-carbonyl)hydrazide]: the concentration for half-maximal inhibition (IC50) was determined as 28 nM. With `CC(C(=O)NNC(=O)c1cc2cc(Cl)ccc2[nH]1)c1ccccc1` (stereo not drawn) [Example 5-15, 5-chloro-1H-indole-2-carboxylic acid 2-(2-phenylpropanoyl)hydrazide] the figure was 63 nM.

As for `N#Cc1ccc(C(=O)NNC(=O)c2cc3cc(Cl)ccc3[nH]2)cc1` [Example 1-58, 4-cyanobenzoic acid 2-(5-chloro-1H-indole-2-carbonyl)hydrazide], the IC50 is over 100 nM. Then `CCCn1c(=O)n(NC(=O)c2cc3cc(Cl)ccc3[nH]2)c(=O)c2ccccc21` [Example 2-30, 5-chloro-1H-indole-2-carboxylic acid (1,2,3,4-tetrahydro-2,4-dioxo-1-propylquinazolin-3-yl)amide], with 88 nM; and `O=C(Nc1ccccc1C(=O)NNC(=O)c1cc2cc(Cl)ccc2[nH]1)OCc1ccccc1` [Example 1-110, benzyl (2-(2-(5-chloro-1H-indole-2-carbonyl)hydrazinocarbonyl)phenyl)carbamate], with 35 nM; and `COC(=O)Cn1c(=O)n(NC(=O)c2cc3cc(Cl)ccc3[nH]2)c(=O)c2ccccc21` [Example 2-22, 2-(3-((5-chloro-1H-indole-2-carbonyl)amino)-1,2,3,4-tetrahydro-2,4-dioxoquinazolin-1-yl)acetic acid methyl ester], with 31 nM. Then `Cc1ccccc1N1CCC(=O)N(NC(=O)c2cc3cc(Cl)ccc3[nH]2)C1=O` [Example 3-15, 5-chloro-1H-indole-2-carboxylic acid (2,4-dioxo-1-(o-tolyl)perhydropyrimidin-3-yl)amide], with 150 nM.

Take `O=C(NN1CCN(c2ccccc2)C1=O)c1cc2cc(Cl)ccc2[nH]1` [Example 4-5, N-(2-oxo-1-phenylimidazolidin-3-yl)-5-chloro-1H-indole-2-carboxamide]: the half-maximal inhibitory concentration (IC50) is over 100 nM.

On to `O=C(NNC(=O)c1ccccc1-c1ccccc1)c1cc2cc(Cl)ccc2[nH]1` [Example 1-27, biphenyl-2-carboxylic acid 2-(5-chloro-1H-indole-2-carbonyl)hydrazide], for which the IC50 came to 47 nM. With `O=C(NNC(=O)c1ccc(Cl)nc1Cl)c1cc2cc(Cl)ccc2[nH]1` [Example 1-79, 2,6-dichloronicotinic acid 2-(5-chloro-1H-indole-2-carbonyl)hydrazide] the figure was 83 nM; with `O=C(NNC(=O)C1(c2ccccc2)CCCCC1)c1cc2cc(Cl)ccc2[nH]1` [Example 5-14, 5-chloro-1H-indole-2-carboxylic acid 2-((1-phenylcyclohexane)carbonyl)hydrazide], 300 nM. As for `Cc1ccc(N2CCC(=O)N(NC(=O)c3cc4cc(Cl)ccc4[nH]3)C2=O)cc1` [Example 3-13, 5-chloro-1H-indole-2-carboxylic acid (2,4-dioxo-1-(p-tolyl)perhydropyrimidin-3-yl)amide], the IC50 was 440 nM.

Turning to `O=C(NNC(=O)c1cc2cc(Cl)ccc2[nH]1)c1ccc([N+](=O)[O-])cc1` [Example 1-12, 4-nitrobenzoic acid 2-(5-chloro-1H-indole-2-carbonyl)hydrazide], the IC50 was 790 nM.

In the case of `Cc1ccc(C(=O)NNC(=O)c2cc3cc(Cl)ccc3[nH]2)cc1` [Example 1-14, 4-methylbenzoic acid 2-(5-chloro-1H-indole-2-carbonyl)hydrazide], the half-maximal inhibitory concentration (IC50) worked out at 130 nM.

For the compound `Cn1cccc1C(=O)NNC(=O)c1cc2cc(Cl)ccc2[nH]1` [Example 1-87, 1-methyl-1H-pyrrole-2-carboxylic acid 2-(5-chloro-1H-indole-2-carbonyl)hydrazide], the IC50 was determined as 56 nM.

In the case of `O=C(NNC(=O)c1ccccc1OCCO)c1cc2cc(Cl)ccc2[nH]1` [Example 1-68, 2-(2-hydroxyethoxy)benzoic acid 2-(5-chloro-1H-indole-2-carbonyl)hydrazide], the IC50 was found to be 160 nM. With `O=C(NNC(=O)c1cc(F)c(F)c(F)c1F)c1cc2cc(Cl)ccc2[nH]1` [Example 1-94, 2,3,4,5-tetrafluorobenzoic acid 2-(5-chloro-1H-indole-2-carbonyl)hydrazide] the figure was 520 nM; with `O=C(NNC(=O)c1cc2cc(Cl)ccc2[nH]1)Nc1ccc(Cl)cc1` [Example 5-11, 5-chloro-1H-indole-2-carboxylic acid 2-((4-chloroanilino)carbonyl)hydrazide], over 100 nM. With `CC(C)c1ccc2[nH]c(C(=O)Nn3c(=O)[nH]c4cc(F)ccc4c3=O)cc2c1` [Example 2-10, 5-isopropyl-1H-indole-2-carboxylic acid (7-fluoro-1,2,3,4-tetrahydro-2,4-dioxoquinazolin-3-yl)amide] the figure was over 100 nM.

On to `Cc1nc(C(=O)NNC(=O)c2cc3cc(Cl)ccc3[nH]2)c(N)s1` [Example 1-143, 5-amino-2-methylthiazole-4-carboxylic acid 2-(5-chloro-1H-indole-2-carbonyl)hydrazide], for which the IC50 is 120 nM. Then `O=C(Nn1c(=O)[nH]c2ccc(Cl)cc2c1=O)c1cc2cc(Cl)ccc2[nH]1` [Example 2-18, 5-chloro-1H-indole-2-carboxylic acid (6-chloro-1,2,3,4-tetrahydro-2,4-dioxoquinazolin-3-yl)amide], with 40 nM; and `Cc1ccc2[nH]c(C(=O)NNC(=O)c3ccc(F)cc3N)cc2c1` [Example 1-63, 2-amino-4-fluorobenzoic acid 2-(5-methyl-1H-indole-2-carbonyl)hydrazide], with 28 nM.
